Results as given in the NIST ThermoML archive (doi:10.1021/je800224k).

CCn1cc[n+](C)c1.F[P-](F)(F)(F)(F)F [1-ethyl-3-methylimidazolium hexafluorophosphate]
Settings	mass density [kg/m3]
312.8 K, 10000 kPa, Crystal, Bellows volumetry	1562
312.8 K, 20000 kPa, Crystal, Bellows volumetry	1565
312.8 K, 30000 kPa, Crystal, Bellows volumetry	1569
312.8 K, 40000 kPa, Crystal, Bellows volumetry	1572
312.8 K, 50000 kPa, Crystal, Bellows volumetry	1576
312.8 K, 60000 kPa, Crystal, Bellows volumetry	1579
312.8 K, 70000 kPa, Crystal, Bellows volumetry	1582
312.8 K, 80000 kPa, Crystal, Bellows volumetry	1585
312.8 K, 90000 kPa, Crystal, Bellows volumetry	1588
312.8 K, 100000 kPa, Crystal, Bellows volumetry	1591
312.8 K, 110000 kPa, Crystal, Bellows volumetry	1594
312.8 K, 120000 kPa, Crystal, Bellows volumetry	1597
312.8 K, 130000 kPa, Crystal, Bellows volumetry	1600
312.8 K, 140000 kPa, Crystal, Bellows volumetry	1603
312.8 K, 150000 kPa, Crystal, Bellows volumetry	1606
312.8 K, 160000 kPa, Crystal, Bellows volumetry	1609
312.8 K, 170000 kPa, Crystal, Bellows volumetry	1612
312.8 K, 180000 kPa, Crystal, Bellows volumetry	1615
312.8 K, 190000 kPa, Crystal, Bellows volumetry	1617
312.8 K, 200000 kPa, Crystal, Bellows volumetry	1620
332.7 K, 10000 kPa, Crystal, Bellows volumetry	1546
332.7 K, 20000 kPa, Crystal, Bellows volumetry	1550
332.7 K, 30000 kPa, Crystal, Bellows volumetry	1554
332.7 K, 40000 kPa, Crystal, Bellows volumetry	1557
332.7 K, 50000 kPa, Crystal, Bellows volumetry	1561
332.7 K, 60000 kPa, Crystal, Bellows volumetry	1564
332.7 K, 70000 kPa, Crystal, Bellows volumetry	1567
332.7 K, 80000 kPa, Crystal, Bellows volumetry	1571
332.7 K, 90000 kPa, Crystal, Bellows volumetry	1574
332.7 K, 100000 kPa, Crystal, Bellows volumetry	1577
332.7 K, 110000 kPa, Crystal, Bellows volumetry	1581
332.7 K, 120000 kPa, Crystal, Bellows volumetry	1584
332.7 K, 130000 kPa, Crystal, Bellows volumetry	1587
332.7 K, 140000 kPa, Crystal, Bellows volumetry	1590
332.7 K, 150000 kPa, Crystal, Bellows volumetry	1593
332.7 K, 160000 kPa, Crystal, Bellows volumetry	1596
332.7 K, 170000 kPa, Crystal, Bellows volumetry	1599
332.7 K, 180000 kPa, Crystal, Bellows volumetry	1602
332.7 K, 190000 kPa, Crystal, Bellows volumetry	1605
332.7 K, 200000 kPa, Crystal, Bellows volumetry	1608
352.7 K, 10000 kPa, Liquid, Bellows volumetry	1428
352.7 K, 20000 kPa, Liquid, Bellows volumetry	1434
352.7 K, 30000 kPa, Liquid, Bellows volumetry	1440
352.7 K, 40000 kPa, Liquid, Bellows volumetry	1446
352.7 K, 50000 kPa, Liquid, Bellows volumetry	1451
352.7 K, 60000 kPa, Liquid, Bellows volumetry	1456
352.7 K, 70000 kPa, Liquid, Bellows volumetry	1461
352.7 K, 80000 kPa, Liquid, Bellows volumetry	1466
352.7 K, 90000 kPa, Liquid, Bellows volumetry	1471
352.7 K, 100000 kPa, Crystal, Bellows volumetry	1562
352.7 K, 110000 kPa, Crystal, Bellows volumetry	1566
352.7 K, 120000 kPa, Crystal, Bellows volumetry	1570
352.7 K, 130000 kPa, Crystal, Bellows volumetry	1573
352.7 K, 140000 kPa, Crystal, Bellows volumetry	1576
352.7 K, 150000 kPa, Crystal, Bellows volumetry	1580
352.7 K, 160000 kPa, Crystal, Bellows volumetry	1583
352.7 K, 170000 kPa, Crystal, Bellows volumetry	1586
352.7 K, 180000 kPa, Crystal, Bellows volumetry	1589
352.7 K, 190000 kPa, Crystal, Bellows volumetry	1592
352.7 K, 200000 kPa, Crystal, Bellows volumetry	1595
353.15 K, 101.33 kPa, Liquid, Vibrating tube method	1421.8
372.8 K, 10000 kPa, Liquid, Bellows volumetry	1410
372.8 K, 20000 kPa, Liquid, Bellows volumetry	1416
372.8 K, 30000 kPa, Liquid, Bellows volumetry	1423
372.8 K, 40000 kPa, Liquid, Bellows volumetry	1428
372.8 K, 50000 kPa, Liquid, Bellows volumetry	1434
372.8 K, 60000 kPa, Liquid, Bellows volumetry	1439
372.8 K, 70000 kPa, Liquid, Bellows volumetry	1445
372.8 K, 80000 kPa, Liquid, Bellows volumetry	1450
372.8 K, 90000 kPa, Liquid, Bellows volumetry	1455
372.8 K, 100000 kPa, Liquid, Bellows volumetry	1460
372.8 K, 110000 kPa, Liquid, Bellows volumetry	1465
372.8 K, 120000 kPa, Liquid, Bellows volumetry	1470
372.8 K, 130000 kPa, Liquid, Bellows volumetry	1474
372.8 K, 140000 kPa, Liquid, Bellows volumetry	1479
372.8 K, 150000 kPa, Liquid, Bellows volumetry	1483
372.8 K, 160000 kPa, Liquid, Bellows volumetry	1488
372.8 K, 170000 kPa, Liquid, Bellows volumetry	1492
372.8 K, 180000 kPa, Liquid, Bellows volumetry	1497
372.8 K, 190000 kPa, Liquid, Bellows volumetry	1501
372.8 K, 200000 kPa, Liquid, Bellows volumetry	1505
373.15 K, 101.33 kPa, Liquid, Vibrating tube method	1404.9
392.9 K, 10000 kPa, Liquid, Bellows volumetry	1393
392.9 K, 20000 kPa, Liquid, Bellows volumetry	1400
392.9 K, 30000 kPa, Liquid, Bellows volumetry	1406
392.9 K, 40000 kPa, Liquid, Bellows volumetry	1412
392.9 K, 50000 kPa, Liquid, Bellows volumetry	1418
392.9 K, 60000 kPa, Liquid, Bellows volumetry	1424
392.9 K, 70000 kPa, Liquid, Bellows volumetry	1429
392.9 K, 80000 kPa, Liquid, Bellows volumetry	1435
392.9 K, 90000 kPa, Liquid, Bellows volumetry	1440
392.9 K, 100000 kPa, Liquid, Bellows volumetry	1445
392.9 K, 110000 kPa, Liquid, Bellows volumetry	1450
392.9 K, 120000 kPa, Liquid, Bellows volumetry	1455
392.9 K, 130000 kPa, Liquid, Bellows volumetry	1460
392.9 K, 140000 kPa, Liquid, Bellows volumetry	1464
392.9 K, 150000 kPa, Liquid, Bellows volumetry	1469
392.9 K, 160000 kPa, Liquid, Bellows volumetry	1474
392.9 K, 170000 kPa, Liquid, Bellows volumetry	1478
392.9 K, 180000 kPa, Liquid, Bellows volumetry	1483
392.9 K, 190000 kPa, Liquid, Bellows volumetry	1487
392.9 K, 200000 kPa, Liquid, Bellows volumetry	1491
412.9 K, 10000 kPa, Liquid, Bellows volumetry	1377
412.9 K, 20000 kPa, Liquid, Bellows volumetry	1384
412.9 K, 30000 kPa, Liquid, Bellows volumetry	1390
412.9 K, 40000 kPa, Liquid, Bellows volumetry	1397
412.9 K, 50000 kPa, Liquid, Bellows volumetry	1403
412.9 K, 60000 kPa, Liquid, Bellows volumetry	1408
412.9 K, 70000 kPa, Liquid, Bellows volumetry	1414
412.9 K, 80000 kPa, Liquid, Bellows volumetry	1420
412.9 K, 90000 kPa, Liquid, Bellows volumetry	1425
412.9 K, 100000 kPa, Liquid, Bellows volumetry	1431
412.9 K, 110000 kPa, Liquid, Bellows volumetry	1436
412.9 K, 120000 kPa, Liquid, Bellows volumetry	1441
412.9 K, 130000 kPa, Liquid, Bellows volumetry	1446
412.9 K, 140000 kPa, Liquid, Bellows volumetry	1451
412.9 K, 150000 kPa, Liquid, Bellows volumetry	1456
412.9 K, 160000 kPa, Liquid, Bellows volumetry	1460
412.9 K, 170000 kPa, Liquid, Bellows volumetry	1465
412.9 K, 180000 kPa, Liquid, Bellows volumetry	1469
412.9 K, 190000 kPa, Liquid, Bellows volumetry	1474
412.9 K, 200000 kPa, Liquid, Bellows volumetry	1478
432.6 K, 10000 kPa, Liquid, Bellows volumetry	1360
432.6 K, 20000 kPa, Liquid, Bellows volumetry	1367
432.6 K, 30000 kPa, Liquid, Bellows volumetry	1374
432.6 K, 40000 kPa, Liquid, Bellows volumetry	1381
432.6 K, 50000 kPa, Liquid, Bellows volumetry	1387
432.6 K, 60000 kPa, Liquid, Bellows volumetry	1393
432.6 K, 70000 kPa, Liquid, Bellows volumetry	1399
432.6 K, 80000 kPa, Liquid, Bellows volumetry	1405
432.6 K, 90000 kPa, Liquid, Bellows volumetry	1411
432.6 K, 100000 kPa, Liquid, Bellows volumetry	1417
432.6 K, 110000 kPa, Liquid, Bellows volumetry	1422
432.6 K, 120000 kPa, Liquid, Bellows volumetry	1427
432.6 K, 130000 kPa, Liquid, Bellows volumetry	1432
432.6 K, 140000 kPa, Liquid, Bellows volumetry	1437
432.6 K, 150000 kPa, Liquid, Bellows volumetry	1442
432.6 K, 160000 kPa, Liquid, Bellows volumetry	1447
432.6 K, 170000 kPa, Liquid, Bellows volumetry	1451
432.6 K, 180000 kPa, Liquid, Bellows volumetry	1456
432.6 K, 190000 kPa, Liquid, Bellows volumetry	1461
432.6 K, 200000 kPa, Liquid, Bellows volumetry	1465
452.5 K, 10000 kPa, Liquid, Bellows volumetry	1344
452.5 K, 20000 kPa, Liquid, Bellows volumetry	1351
452.5 K, 30000 kPa, Liquid, Bellows volumetry	1359
452.5 K, 40000 kPa, Liquid, Bellows volumetry	1366
452.5 K, 50000 kPa, Liquid, Bellows volumetry	1372
452.5 K, 60000 kPa, Liquid, Bellows volumetry	1379
452.5 K, 70000 kPa, Liquid, Bellows volumetry	1385
452.5 K, 80000 kPa, Liquid, Bellows volumetry	1391
452.5 K, 90000 kPa, Liquid, Bellows volumetry	1397
452.5 K, 100000 kPa, Liquid, Bellows volumetry	1402
452.5 K, 110000 kPa, Liquid, Bellows volumetry	1408
452.5 K, 120000 kPa, Liquid, Bellows volumetry	1414
452.5 K, 130000 kPa, Liquid, Bellows volumetry	1419
452.5 K, 140000 kPa, Liquid, Bellows volumetry	1423
452.5 K, 150000 kPa, Liquid, Bellows volumetry	1429
452.5 K, 160000 kPa, Liquid, Bellows volumetry	1434
452.5 K, 170000 kPa, Liquid, Bellows volumetry	1439
452.5 K, 180000 kPa, Liquid, Bellows volumetry	1444
452.5 K, 190000 kPa, Liquid, Bellows volumetry	1448
452.5 K, 200000 kPa, Liquid, Bellows volumetry	1453
472.4 K, 10000 kPa, Liquid, Bellows volumetry	1327
472.4 K, 20000 kPa, Liquid, Bellows volumetry	1336
472.4 K, 30000 kPa, Liquid, Bellows volumetry	1344
472.4 K, 40000 kPa, Liquid, Bellows volumetry	1351
472.4 K, 50000 kPa, Liquid, Bellows volumetry	1358
472.4 K, 60000 kPa, Liquid, Bellows volumetry	1364
472.4 K, 70000 kPa, Liquid, Bellows volumetry	1371
472.4 K, 80000 kPa, Liquid, Bellows volumetry	1377
472.4 K, 90000 kPa, Liquid, Bellows volumetry	1383
472.4 K, 100000 kPa, Liquid, Bellows volumetry	1389
472.4 K, 110000 kPa, Liquid, Bellows volumetry	1395
472.4 K, 120000 kPa, Liquid, Bellows volumetry	1400
472.4 K, 130000 kPa, Liquid, Bellows volumetry	1405
472.4 K, 140000 kPa, Liquid, Bellows volumetry	1411
472.4 K, 150000 kPa, Liquid, Bellows volumetry	1416
472.4 K, 160000 kPa, Liquid, Bellows volumetry	1421
472.4 K, 170000 kPa, Liquid, Bellows volumetry	1426
472.4 K, 180000 kPa, Liquid, Bellows volumetry	1431
472.4 K, 190000 kPa, Liquid, Bellows volumetry	1436
472.4 K, 200000 kPa, Liquid, Bellows volumetry	1440
